Assay results: PMC5794259, “Novel ATP-cone-driven allosteric regulation of ribonucleotide reductase via the radical-generating subunit” (eLife, 2018)
Where “and” joins values, the source holds several entries; their conditions need not be identical. Equal values may be shown once.

Columns and labels:
NrdB [1] = target: T1, NrdB (Leeuwenhoekiella blandensis, UniProt A3XHF9); test: GEMMA analysis of NrdB oligomers; conditions: 50 µM nucleotide, 0.1 mg/ml NrdB (~2 µM)
Method: In GEMMA, biomolecules are electrosprayed into gas phase, neutralized to singly charged particles, and the gas phase electrophoretic mobility is measured with a differential mobility analyzer. The mobility of an analyzed particle is proportional to its diameter, which therefore allows for quantitative analysis of the different particle sizes contained in a sample ([Kaufman et al., 1996]). The GEMMA instrumental setup and general procedures were as described previously ([Rofougaran et al., 2008]). NrdA, NrdB and NrdB∆99 proteins were equilibrated by Sephadex G-25 chromatography into a buffer containing 100 mM ammonium acetate, pH 7.8. In addition, 2 mM DTT was added to the NrdA protein solutions to increase protein stability. Prior to GEMMA analysis, the protein samples were diluted to a concentration of 0.025–0.1 mg/ml in a buffer containing 20 mM ammonium acetate, pH 7.5, 0.005% (v/v) Tween 20, nucleotides (when indicated), and magnesium acetate (equimolar to the total nucleotide concentration), incubated for 5 min at room temperature, centrifuged and applied to the GEMMA instrument. Protein concentrations higher than normally recommended for GEMMA were needed to see the larger oligomeric complexes and the experiments to measure NrdA-NrdB interactions were run at as low flow rate as possible (driven by 1.4 Psi pressure) to minimize false interactions that may appear with elevated protein concentration if the flow-rate recommended by the manufacturer is used (3.7 Psi). Most of our experiments were performed with a flow rate driven by 2 Psi.

NrdB [2] = target: T1, NrdB; test: Isothermal titration calorimetry (ITC), nucleotide binding to NrdB; conditions: for N (binding stoichiometry): per NrdB monomer, for dATP kept constant N = 2, 59% active protein; for lower affinity compared to dATP: from Kd, ITC
Method: Isothermal titration calorimetry (ITC) experiments were carried out on a MicroCal PEAQ-ITC system (Malvern Instruments Ltd) in a buffer containing 25 mM HEPES (pH 7.65), 150 mM NaCl, and 10% glycerol, 2 mM tris(2-carboxyethyl)phosphine, and 5 mM MgCl2. Measurements were done at 10°C. The initial injection volume was 0.4 μl over a duration of 0.8 s. All subsequent injection volumes were 2–2.5 μl over 4–5 s with a spacing of 150 s between the injections. Data for the initial injection were not considered. For dATP binding analysis, the concentration of NrdB in the cell was 12 µM and dATP in syringe 120 or 140 µM. Reverse titrations were performed with 113 µM NrdB in the syringe and 12 or 30 µM dATP in the cell. For titration of dATP into NrdB∆99, protein concentration in the cell and dATP concentration in the syringe were 50 µM and 900 µM respectively. […] For titration of ATP into NrdB, cell and syringe concentrations were 50 and 1600 µM respectively. The data were analyzed using the built-in one set of sites model of the MicroCal PEAQ-ITC Analysis Software (Malvern Instruments Ltd). A fixed ligand/protein stoichiometry of 2 was used for dATP to NrdB titrations. Standard deviations in thermodynamic parameters, N and Kd were estimated from the fits of three different titrations.

[3] = target: L. blandensis RNR, a-site (NrdB-linked ATP-cone) (Leeuwenhoekiella blandensis, UniProt A3XHF9); test: Enzyme activity assay with wild type NrdB (overall activity regulation, a-site); format: biochemical; conditions: for interaction with the a-site (effect on GDP reduction): 2 mM nucleotide, s-site saturating dTTP (2 mM), 4 µM NrdA and 1 µM NrdB
Method: (§1) Enzyme assays were performed at room temperature in 50 mM Tris-HCl at pH 8 in volumes of 50 μl. Reaction conditions, giving maximal activity were determined experimentally. […] Mixtures of 0.5 μM NrdA and 2 μM wild type NrdB or NrdB∆99 (for determination of s-site KL) (Figure 3a–b) or 0.5 μM of NrdB and 2 uM NrdA (for determination of a-site KL), (Figure 3c–f) were used. Some components were explicitly varied in specific experiments. Generally, 0.8 mM CDP was used as substrate. […] When dTTP was used as an s-site effector, 0.5 mM or 0.8 mM GDP was used as substrate. In four substrate assays, the four substrates CDP, ADP, GDP and UDP were simultaneously present in the mixture at concentrations of 0.5 mM each. The substrate mixture was added last to start the reactions. Certain assays were performed in the presence of Mn(CH3COO)2 or FeNH4(SO4): 20 μM of the indicated metal was added to 10 μM NrdB or NrdB∆99 protein, incubated for 10 min, mixed with NrdA and added to the reaction mixture.
(§2) Enzyme reactions were incubated for 10–30 min and then stopped by the addition of methanol. The chosen incubation time gave a maximum substrate turnover of 30%. […] Compound identification was achieved by comparison with injected standards. Relative quantification was obtained by peak height measurements in the chromatogram (UV absorbance at 271 nm) in relation to standards. Specific activities of either NrdA (Figure 2a–b) or NrdB (Figure 2c–f) were determined. Specific activities varied between protein preparations. In some cases the data was standardized to activity percent, where 100% was determined as maximum enzyme activity in a specific condition.
(§3) From a direct plot of activity versus concentration of effector, the KL values for binding of effectors to the s-site and the a-site, were calculated in SigmaPlot using the equation: V=Vmax×[dNTP]/(KL+[dNTP]) and Ki for non-competitive dATP inhibition at NrdB was calculated in Sigmaplot using the equation: V=Vmax/(1+[dNTP]/Ki)

s-site in NrdA = target: T2, s-site in NrdA (Leeuwenhoekiella blandensis, UniProt A3XHF8); test: Enzyme activity assay, CDP reduction, effector titration with NrdB∆99 (s-site); format: biochemical; conditions: 0.5 µM NrdA and 2 µM NrdB∆99, read-out: KL (s-site), concentration of allosteric effector that gives half maximal enzyme activity
T2 sequence (A3XHF8 1-600): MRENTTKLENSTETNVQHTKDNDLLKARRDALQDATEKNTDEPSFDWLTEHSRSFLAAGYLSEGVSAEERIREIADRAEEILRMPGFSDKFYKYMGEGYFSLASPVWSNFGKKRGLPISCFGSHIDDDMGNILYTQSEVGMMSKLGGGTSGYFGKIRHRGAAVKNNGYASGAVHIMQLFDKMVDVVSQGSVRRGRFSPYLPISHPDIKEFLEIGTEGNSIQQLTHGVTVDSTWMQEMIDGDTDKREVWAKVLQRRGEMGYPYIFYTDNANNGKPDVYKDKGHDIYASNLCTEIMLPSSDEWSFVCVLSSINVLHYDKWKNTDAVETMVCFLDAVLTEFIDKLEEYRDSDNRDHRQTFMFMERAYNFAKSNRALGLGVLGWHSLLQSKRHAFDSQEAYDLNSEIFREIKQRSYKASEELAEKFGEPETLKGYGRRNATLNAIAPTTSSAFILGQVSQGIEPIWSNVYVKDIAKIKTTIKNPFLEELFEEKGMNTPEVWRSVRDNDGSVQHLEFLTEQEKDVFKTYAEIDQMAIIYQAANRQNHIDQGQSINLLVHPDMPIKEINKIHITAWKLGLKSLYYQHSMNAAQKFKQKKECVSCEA
T2 sequence (A3XHF9 100-427 partner): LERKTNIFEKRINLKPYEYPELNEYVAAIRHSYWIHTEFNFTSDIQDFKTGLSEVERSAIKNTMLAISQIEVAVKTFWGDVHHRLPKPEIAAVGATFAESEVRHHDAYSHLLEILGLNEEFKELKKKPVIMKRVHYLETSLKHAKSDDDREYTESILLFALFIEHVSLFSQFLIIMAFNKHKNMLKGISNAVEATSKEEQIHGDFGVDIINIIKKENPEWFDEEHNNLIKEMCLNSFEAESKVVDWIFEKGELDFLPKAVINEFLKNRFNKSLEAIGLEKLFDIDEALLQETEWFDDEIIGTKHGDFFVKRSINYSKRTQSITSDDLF
Method: (§4) Enzyme assays were performed at room temperature in 50 mM Tris-HCl at pH 8 in volumes of 50 μl. Reaction conditions, giving maximal activity were determined experimentally. […] Mixtures of 0.5 μM NrdA and 2 μM wild type NrdB or NrdB∆99 (for determination of s-site KL) (Figure 3a–b) or 0.5 μM of NrdB and 2 uM NrdA (for determination of a-site KL), (Figure 3c–f) were used. Some components were explicitly varied in specific experiments. Generally, 0.8 mM CDP was used as substrate. […] When dTTP was used as an s-site effector, 0.5 mM or 0.8 mM GDP was used as substrate. […]
Enzyme reactions were incubated for 10–30 min and then stopped by the addition of methanol. […] Relative quantification was obtained by peak height measurements in the chromatogram (UV absorbance at 271 nm) in relation to standards. Specific activities of either NrdA (Figure 2a–b) or NrdB (Figure 2c–f) were determined. […] In some cases the data was standardized to activity percent, where 100% was determined as maximum enzyme activity in a specific condition.
as §3

[4] = system: L. blandensis class I RNR; test: Four-substrate activity assay, allosteric specificity regulation; format: biochemical, Leeuwenhoekiella blandensis; conditions: all four substrates 0.5 mM each, effector 2 mM, 1 µM NrdB and 4 µM NrdA
Method: as §1, §2

[5] = system: L. blandensis RNR (wild-type NrdB or NrdB∆99); test: Metal-dependency of enzyme activity; format: biochemical, Leeuwenhoekiella blandensis; conditions: metal added to cultures or 20 µM divalent metal ions to 10 µM NrdB
Method: Overnight cultures of E. coli BL21(DE3)/pET28a(+) bearing pET-nrdA, pET-nrdB and pET-nrdB∆99 were diluted to an absorbance at 600 nm of 0.1 in LB (Luria-Bertani) liquid medium, containing kanamycin (50 μg/ml) and shaken vigorously at 37°C. At an absorbance at 600 nm of 0.8, isopropyl-β-D-thiogalactopyranoside (Sigma) was added to a final concentration of 0.01 mM for NrdA expression and 0.5 mM for NrdB and NrdB∆99 expression. For particular experiments, 0.5 mM MnSO4 or 0.5 mM FeNH4(SO4)2 or the combination of both metals (0.4 mM and 0.25 mM respectively) were added to NrdB∆99 cultures. The cells were grown overnight at 14°C for NrdA expression and 20°C for NrdB and NrdB∆99 expression and harvested by centrifugation.
as §4

Chain of L. blandensis RNR, a-site (NrdB-linked ATP-cone) (A3XHF9 entry or part of it, one chain of several): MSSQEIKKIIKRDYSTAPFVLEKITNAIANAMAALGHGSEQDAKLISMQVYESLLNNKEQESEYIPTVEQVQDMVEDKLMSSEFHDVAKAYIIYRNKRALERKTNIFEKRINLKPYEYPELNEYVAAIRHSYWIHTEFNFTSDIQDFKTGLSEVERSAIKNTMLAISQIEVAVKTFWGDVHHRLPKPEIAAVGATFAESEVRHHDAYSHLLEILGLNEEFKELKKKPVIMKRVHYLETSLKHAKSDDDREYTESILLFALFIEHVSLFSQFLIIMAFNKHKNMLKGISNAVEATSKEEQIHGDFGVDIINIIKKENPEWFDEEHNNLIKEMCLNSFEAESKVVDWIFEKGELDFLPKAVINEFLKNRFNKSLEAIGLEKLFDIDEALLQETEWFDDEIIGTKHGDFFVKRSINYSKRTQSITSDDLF
T1 sequence (A3XHF9 entry or part of it): as the sequence (A3XHF9 entry or part of it, one chain of several) above

dADP was tested, and the “effect on NrdB oligomer equilibrium” value (NrdB [1]) was “induced formation of NrdB tetramers, although less efficiently than with dATP”, the “-TΔS” value (NrdB [2]; 10°C) was 18.4 ± 1.9 kcal/mol and the ΔG (NrdB [2]; 10°C) was -6.21 kcal/mol. The ΔH (NrdB [2]; 10°C) was -24.6 kcal/mol and -24.6 ± 2.2 kcal/mol, the “N (binding stoichiometry)” value (NrdB [2]; 10°C) was 2.1 and 2.1 ± 0.2 and the “lower affinity compared to dATP” value (NrdB [2]) was 15 fold. For the same compound, the “interaction with the a-site (effect on GDP reduction)” value [3] was “found to interact” and the “effect of titration on enzyme activity” value ([3]; CDP reduction (3 mM CDP), 2 µM NrdA and 0.5 µM NrdB) was “inhibited the enzyme activity, although less strongly than dATP”.

With `Nc1ncnc2c1ncn2[C@@H]1O[C@H](COP(=O)(O)OP(=O)(O)OP(=O)(O)O)[C@@H](O)[C@H]1O` [ATP] the EC50 (s-site in NrdA) was 30 µM, the “-TΔS” value (NrdB [2]; 10°C) was 4.78 ± 0.96 kcal/mol and the ΔG (NrdB [2]; 10°C) was -5.74 kcal/mol. For the same compound, the Kd (NrdB [2]; 10°C, one-set-of-sites model) was 38 ± 2 µM, the “N (binding stoichiometry)” value (NrdB [2]; 10°C) was 2.2 and 2.2 ± 0.4 and the “lower affinity compared to dATP” value (NrdB [2]) was 38 fold. The “effect of s-site effector on substrate reduction” value [4] was “stimulated the reduction of CDP and UDP”, the EC50 [3] was 96 µM and the “effect on enzyme activity” value ([3]; CDP reduction, 0.5 µM NrdA and 2 µM wild type NrdB) was “clearly activated the enzyme”.

In the case of `O=S(=O)([O-])[O-].O=S(=O)([O-])[O-].[Fe+2].[NH4+].[NH4+]` [Fe^2+, FeNH4(SO4)], the “effect of metal on catalytic activity” value [5] is reported as “inhibition”.

`CC(=O)[O-].CC(=O)[O-].[Mn+2]` [Mn, Mn(CH3COO)2] was tested, and the “effect of metal on catalytic activity” value [5] was “increase in catalytic activity”.

With `Nc1ncnc2c1ncn2[C@@H]1O[C@H](COP(=O)(O)O)[C@@H](O)[C@H]1O` [AMP] the “interaction with the a-site (effect on GDP reduction)” value [3] was “no effect”.
